Source: BigSolDB 2.1

C[N+](C)(C)C[C@H](O)CC(=O)[O-]
solubility (mole fraction) (in acetone, 278.15 K): 7.1e-05
solubility (mole fraction) (in acetone, 283.15 K): 8.1e-05
solubility (mole fraction) (in acetone, 288.15 K): 9.1e-05
solubility (mole fraction) (in acetone, 293.15 K): 0.000106
solubility (mole fraction) (in acetone, 298.15 K): 0.000117
solubility (mole fraction) (in acetone, 303.15 K): 0.000131
solubility (mole fraction) (in acetone, 308.15 K): 0.000143
solubility (mole fraction) (in acetone, 313.15 K): 0.000157
solubility (mole fraction) (in acetone, 318.15 K): 0.000175
solubility (mole fraction) (in acetone, 323.15 K): 0.000195
solubility (mole fraction) (in acetone, 328.15 K): 0.00022
solubility (mole fraction) (in ethanol, 278.15 K): 0.0392
solubility (mole fraction) (in ethanol, 283.15 K): 0.0408
solubility (mole fraction) (in ethanol, 288.15 K): 0.0431
solubility (mole fraction) (in ethanol, 293.15 K): 0.0452
solubility (mole fraction) (in ethanol, 298.15 K): 0.0483
solubility (mole fraction) (in ethanol, 303.15 K): 0.0517
solubility (mole fraction) (in ethanol, 308.15 K): 0.0546
solubility (mole fraction) (in ethanol, 313.15 K): 0.0576
solubility (mole fraction) (in ethanol, 318.15 K): 0.0607
solubility (mole fraction) (in ethanol, 323.15 K): 0.0648
solubility (mole fraction) (in ethanol, 328.15 K): 0.0698
solubility (mole fraction) (in ethanol, 333.15 K): 0.0747
solubility (mole fraction) (in ethanol, 338.15 K): 0.0801
solubility (mole fraction) (in ethanol, 343.15 K): 0.0855
solubility (mole fraction) (in ethanol, 348.15 K): 0.0919
solubility (mole fraction) (in isopropanol, 278.15 K): 0.00146
solubility (mole fraction) (in isopropanol, 283.15 K): 0.00181
solubility (mole fraction) (in isopropanol, 288.15 K): 0.00223
solubility (mole fraction) (in isopropanol, 293.15 K): 0.00271
solubility (mole fraction) (in isopropanol, 298.15 K): 0.0034
solubility (mole fraction) (in isopropanol, 303.15 K): 0.00417
solubility (mole fraction) (in isopropanol, 308.15 K): 0.00527
solubility (mole fraction) (in isopropanol, 313.15 K): 0.0063
solubility (mole fraction) (in isopropanol, 318.15 K): 0.00778
solubility (mole fraction) (in isopropanol, 323.15 K): 0.00983
solubility (mole fraction) (in isopropanol, 328.15 K): 0.0118
solubility (mole fraction) (in isopropanol, 333.15 K): 0.0144
solubility (mole fraction) (in methanol, 278.15 K): 0.0962
solubility (mole fraction) (in methanol, 283.15 K): 0.0982
solubility (mole fraction) (in methanol, 288.15 K): 0.104
solubility (mole fraction) (in methanol, 293.15 K): 0.111
solubility (mole fraction) (in methanol, 298.15 K): 0.119
solubility (mole fraction) (in methanol, 303.15 K): 0.127
solubility (mole fraction) (in methanol, 308.15 K): 0.136
solubility (mole fraction) (in methanol, 313.15 K): 0.144
solubility (mole fraction) (in methanol, 318.15 K): 0.154
solubility (mole fraction) (in methanol, 323.15 K): 0.165
solubility (mole fraction) (in methanol, 328.15 K): 0.178
solubility (mole fraction) (in methanol, 333.15 K): 0.189
